Active and inactive are the calls of the source. No cut-off for these calls is given here.
Tests used:
Bacteria [1] = assay: Inhibition of recombinant NDM-1 (unknown origin) using fluorocillin as substrate in presence of ZnCl2 incubated for 30 mins by fluorescence based assay
Klebsiella pneumoniae [2] = assay: Potentiation of cefuroxime-induced antibacterial activity against Klebsiella pneumoniae clinical isolate T2301 expressing NDM-1 assessed as cefuroxime MIC at 32 mg/L by CLSI protocol based broth microdilution assay; format: functional
Escherichia coli [3] = assay: Potentiation of imipenem-induced antibacterial activity against Escherichia coli T2435 expressing KPC-2 assessed as imipenem MIC at 32 mg/L by CLSI protocol based broth microdilution assay; format: functional
Klebsiella pneumoniae [4] = assay: Bactericidal activity against Klebsiella pneumoniae T2301 expressing NDM-1 assessed as killing rate at 0.5 X MIC measured after 24 hrs in presence of imipenem by time-kill assay relative to control; format: functional
[5] = Inhibition of recombinant NDM-1 (unknown origin) using fluorocillin as substrate at 3 uM incubated for 30 mins by fluorescence based assay; conditions: Bacteria
Escherichia coli [6] = assay: Potentiation of imipenem-induced antibacterial activity against Escherichia coli T2435 expressing KPC-2 assessed as fold change in imipenem MIC at 32 mg/L by CLSI protocol based broth microdilution assay; format: functional
Klebsiella pneumoniae [7] = assay: Potentiation of imipenem-induced antibacterial activity against Klebsiella pneumoniae clinical isolate T2301 expressing NDM-1 assessed as fold change in imipenem MIC at 32 mg/L by CLSI protocol based broth microdilution assay; format: functional
Bacteria [8] = assay: Inhibition of recombinant VIM-1 (unknown origin) using fluorocillin as substrate at 3 uM incubated for 30 mins by fluorescence based assay
Enterobacter cloacae [9] = assay: Potentiation of imipenem-induced antibacterial activity against Enterobacter cloacae T2311 expressing NDM-1 assessed as fold change in imipenem MIC at 32 mg/L by CLSI protocol based broth microdilution assay; format: functional
Citrobacter freundii [10] = assay: Potentiation of imipenem-induced antibacterial activity against Citrobacter freundii T2431 expressing KPC-3 assessed as imipenem MIC at 32 mg/L by CLSI protocol based broth microdilution assay; format: functional
Bacteria [11] = assay: Inhibition of recombinant VIM-1 (unknown origin) using fluorocillin as substrate at 10 uM incubated for 30 mins by fluorescence based assay
Klebsiella pneumoniae [12] = assay: Antimicrobial activity against Klebsiella pneumoniae clinical isolate T2301 expressing NDM-1 assessed as inhibition of bacterial growth by CLSI protocol based broth microdilution assay; format: functional
Escherichia coli [13] = assay: Antimicrobial activity against Escherichia coli T2359 expressing VIM-1 assessed as inhibition of bacterial growth at 0.5XMIC for 6 hrs by CLSI protocol based broth microdilution assay; format: functional, organism-based
Klebsiella pneumoniae [14] = assay: Antimicrobial activity against Klebsiella pneumoniae T2301 expressing NDM-1 assessed as assessed as inhibition of bacterial growth at 0.5XMIC measured after 24 hrs by time-kill assay; format: functional, organism-based
[15] = Inhibition of recombinant NDM-1 (unknown origin) using fluorocillin as substrate at 30 uM incubated for 30 mins by fluorescence based assay; conditions: Bacteria
Klebsiella pneumoniae [16] = assay: Potentiation of imipenem-induced antibacterial activity against Klebsiella pneumoniae T2432 expressing KPC-9 assessed as imipenem MIC at 32 mg/L by CLSI protocol based broth microdilution assay; format: functional
Serratia marcescens = assay: Potentiation of imipenem-induced antibacterial activity against Serratia marcescens T2352 expressing NDM-1 assessed as fold change in imipenem MIC at 32 mg/L by CLSI protocol based broth microdilution assay; format: functional
Escherichia coli [17] = assay: Antimicrobial activity against Escherichia coli T2359 expressing VIM-1 assessed as assessed as inhibition of bacterial growth at 0.5XMIC measured after 24 hrs by time-kill assay; format: functional, organism-based
Pseudomonas aeruginosa [18] = assay: Potentiation of imipenem-induced antibacterial activity against Pseudomonas aeruginosa T1098 expressing IMP-7 assessed as imipenem MIC at 32 mg/L by CLSI protocol based broth microdilution assay; format: functional
Escherichia coli [19] = assay: Potentiation of piperacillin-induced antibacterial activity against Escherichia coli clinical isolate T2228 expressing VIM-1 assessed as piperacillin MIC at 32 mg/L by CLSI protocol based broth microdilution assay; format: functional
Klebsiella pneumoniae [20] = assay: Potentiation of imipenem-induced antibacterial activity against Klebsiella pneumoniae clinical isolate T2301 expressing NDM-1 assessed as imipenem MIC at 32 mg/L by CLSI protocol based broth microdilution assay; format: functional
Pseudomonas aeruginosa [21] = assay: Potentiation of imipenem-induced antibacterial activity against Pseudomonas aeruginosa T2357 expressing VIM-1 assessed as fold change in imipenem MIC at 32 mg/L by CLSI protocol based broth microdilution assay; format: functional
Pseudomonas aeruginosa [22] = assay: Potentiation of imipenem-induced antibacterial activity against Pseudomonas aeruginosa T2282 expressing VIM-2 assessed as imipenem MIC at 32 mg/L by CLSI protocol based broth microdilution assay; format: functional
Enterobacter cloacae [23] = assay: Potentiation of imipenem-induced antibacterial activity against Enterobacter cloacae T2353 expressing VIM-1 assessed as imipenem MIC at 32 mg/L by CLSI protocol based broth microdilution assay; format: functional
Escherichia coli [24] = assay: Potentiation of cefuroxime-induced antibacterial activity against Escherichia coli clinical isolate T2228 expressing VIM-1 assessed as cefuroxime MIC at 32 mg/L by CLSI protocol based broth microdilution assay; format: functional
Escherichia coli [25] = assay: Potentiation of imipenem-induced antibacterial activity against Escherichia coli T2544 expressing VIM-1 assessed as fold change in imipenem MIC at 32 mg/L by CLSI protocol based broth microdilution assay; format: functional
Escherichia coli [26] = assay: Synergistic antibacterial activity against Escherichia coli T2544 expressing VIM-1 assessed as fractional inhibitory concentration index in presence of imipenem by checkerboard assay; format: functional
Citrobacter freundii [27] = assay: Potentiation of imipenem-induced antibacterial activity against Citrobacter freundii T2354 expressing VIM-4 assessed as imipenem MIC at 32 mg/L by CLSI protocol based broth microdilution assay; format: functional
Klebsiella pneumoniae [28] = assay: Antimicrobial activity against Klebsiella pneumoniae T2301 expressing NDM-1 assessed as inhibition of bacterial growth at 0.5XMIC for 6 hrs by CLSI protocol based broth microdilution assay; format: functional, organism-based
Escherichia coli [29] = assay: Antimicrobial activity against Escherichia coli clinical isolate T2228 expressing VIM-1 assessed as inhibition of bacterial growth by CLSI protocol based broth microdilution assay; format: functional
[30] = Inhibition of recombinant NDM-1 (unknown origin) using fluorocillin as substrate at 10 uM incubated for 30 mins by fluorescence based assay; conditions: Bacteria
Escherichia coli [31] = assay: Potentiation of imipenem-induced antibacterial activity against Escherichia coli clinical isolate T2228 expressing VIM-1 assessed as fold change in imipenem MIC at 32 mg/L by CLSI protocol based broth microdilution assay; format: functional
Bacteria [32] = assay: Inhibition of recombinant IMP-1 (unknown origin) using fluorocillin as substrate at 30 uM incubated for 30 mins by fluorescence based assay
Klebsiella pneumoniae [33] = assay: Potentiation of meropenem-induced antibacterial activity against Klebsiella pneumoniae clinical isolate T2301 expressing NDM-1 assessed as meropenem MIC at 32 mg/L by CLSI protocol based broth microdilution assay; format: functional
Bacteria [34] = assay: Inhibition of recombinant IMP-1 (unknown origin) using fluorocillin as substrate at 3 uM incubated for 30 mins by fluorescence based assay
Escherichia coli [35] = assay: Bactericidal activity against Escherichia coli T2359 expressing VIM-1 assessed as killing rate at 0.5 XMIC measured after 24 hrs in presence of imipenem by time-kill assay relative to control; format: functional

- inhibition (Bacteria [1]): inactive
- MIC (Klebsiella pneumoniae [2]): 4.1 µg/mL
- MIC (Escherichia coli [3]): 0.004 µg/mL
- inhibition [5]: 68%
- inhibition (Bacteria [8]): 98%
- MIC (Citrobacter freundii [10]): 0.004 µg/mL
- inhibition (Bacteria [11]): 100%
- MIC (Klebsiella pneumoniae [12]): > 0.066 µg/mL
- inhibition [15]: 96%
- MIC (Klebsiella pneumoniae [16]): 0.016 µg/mL
- MIC (Pseudomonas aeruginosa [18]): 0.016 µg/mL
- MIC (Escherichia coli [19]): 1 µg/mL
- MIC (Klebsiella pneumoniae [20]): 0.25 µg/mL
- MIC (Pseudomonas aeruginosa [22]): 0.008 µg/mL
- MIC (Enterobacter cloacae [23]): 0.001 µg/mL
- MIC (Escherichia coli [24]): 0.002 µg/mL
- MIC (Citrobacter freundii [27]): 0.25 µg/mL
- MIC (Escherichia coli [29]): > 0.067 µg/mL
- inhibition [30]: 88%
- inhibition (Bacteria [32]): 98%
- MIC (Klebsiella pneumoniae [33]): 0.25 µg/mL
- inhibition (Bacteria [34]): 59%
SMILES: N#CCN(Cc1ccccc1)Cc1cc([N+](=O)[O-])c2cccnc2c1O
- Activity (Klebsiella pneumoniae [4]): >99.9%
- fold change (FC) (Escherichia coli [6]): 1
- fold change (FC) (Klebsiella pneumoniae [7]): 64
- fold change (FC) (Enterobacter cloacae [9]): 16
- inhibition (Escherichia coli [13]): Active
- Activity (Klebsiella pneumoniae [14]): inactive
- fold change (FC) (Serratia marcescens): 1024
- Activity (Escherichia coli [17]): inactive
- fold change (FC) (Pseudomonas aeruginosa [21]): 32
- fold change (FC) (Escherichia coli [25]): 64
- fractional inhibitory concentration index (FICI) (Escherichia coli [26]): 0.265
- inhibition (Klebsiella pneumoniae [28]): Active
- fold change (FC) (Escherichia coli [31]): 8
- Activity (Escherichia coli [35]): >99.9%
